# According to patent US20090239757A1, “Control Sequences Responding to AMP and Uses Thereof” (priority 2004, published 2009):
# Residues, ends and D or L forms follow the SMILES beside them.
# Test system: E. coli TOP10
# Assay: microarray transcription profile of E. coli TOP10 expressing Novispirin G10 (pDRS5-novispirin, arabinose induced) relative to control strain pBAD gIII A
# Format: cell-based, Escherichia coli
# Procedure: In order to obtain a transcriptional profile of E. coli expressing Novispirin G10, 2×10 mL sterile LB media (10 g/L Bactotryptone, 5 g/L Yeast extract, and 10 g/L NaCl) containing 100 mg/L ampicillin was inoculated with E. coli TOP10 harbouring pDRS5-novispirin and pBAD gIII A, respectively. These cultures were grown overnight at 37° C. at 180 rpm. The overnight cultures were diluted 1/100 into fresh sterile RM media (2% Casamino Acids, 0.2% glycerol, 1 mM MgCl2, 0.1 mM thiamine, 6 g/L Na2HPO4, 3 g/L KH2PO4.2H2O, 0.5 g/L NaCl, 0.1 g/L NH4Cl at pH 7.4) supplemented with 100 mg/L ampicillin and 0.1% arabinose. 100 mL of each culture was grown at 37° C., 240 rpm for 4.5 hours before being harvested by poured into centrifugation tubes containing 10 mL pre-frozen milliQ water and immediate centrifugation at 4200 g for 15 minutes at 4° C. Immediately hereafter, the supernatant was decanted and the cell […] was frozen at −20° C. for storage until RNA preparation was initiated.
# Total RNA was isolated from the two E. coli (expressing either Novispirin G10 or a control peptide) cultures by use of the High Pure RNA Isolation kit (Roche, cat #1 828 665) according to the manufacturers instructions. Residual DNA was removed on-column with RNase-free DNase. Labelled samples were prepared from 30 μg of total bacterial RNA. Fluorescent first strand cDNA was prepared by random primed reverse transcription (Superscript II; Life Technologies) by use of random hexamers for cDNA synthesis. 2 μl (20 μg) of random primer was mixed with 15 μl (30 μg) of total RNA, incubated for 5 min at 70° C., and cooled on ice. To each sample was added 5× first strand buffer (6 μl), 0.1 M DTT (3 μl), dNTP mix (5 mM dATP, dGTP and dTTP and 2 mM dCTP) (1 μl), RNaseOut (1 μl), Superscript II reverse transcriptase (2 μl) and Cy-dCTP (3 μl). Reverse transcription was carried out at 42° C. for 1 hr. RNA was removed by addition of 10 μl NaOH (1 M) and incubation at 65° C. for 10 min. The samples were neutralised by addition of 10 μl HCl (1 M). Cy3 and Cy5 cDNA samples were mixed and immediately purified with a GFX PCR DNA and Gel Band Purification Kit (Amersham Biosciences).
# Slides were pre-hybridised at 42° C. for 45 min in a solution containing 4×SSC+0.5% SDS+1% BSA and dried by centrifugation. Hybridizations were in a volume of 25 μl under a supported cover slip at 42° C. for 16-18 h at high humidity. The hybridisation mixture was labelled cDNA in a formamide-based hybridisation buffer (MWG—supplied with the pan-arrays). Cover slip and supports were gently removed (2×SSC in a wash tray) and arrays were washed by immersion into 2×SSC+0.1% SDS for 5 min, 1×SSC+0.1% SDS for 5 min, 0.5×SSC for 5 min and 1× millipore water for 10 sec and dried by centrifugation. Slides were scanned on a GMS 418 scanner to detect Cy3 and Cy5 fluorescence. Data analysis was carried out using ImaGene 5.0 and GeneSight 3.5 from BioDiscovery (www.biodiscovery.com). Two biological replicate experiments with four replicate hybridisations in each experiment were carried out for generation of data.
# Pan E. coli K12 Arrays from MWG Biotech were used in this study (lot No.: 020206). The 4239 E. coli K12 specific oligonucleotide probes present on this glass-based DNA chip represent the complete Escherichia coli (K12) genome
# Gene expression data was analyzed using the GeneSight 4.1.5 software from BioDiscovery. Data was prepared using local background correction, removal of flagged spots (contaminated background or signal), floor value raising data to a minimum value of 20, calculation of ratio, log(2) transformation of ratios, print-tip lowess normalization, and finally combination of replicate spot.
# [1] = confidence level of 90%, relative to control strain expressing a peptide without antimicrobial activity
smiles,measurement,setting,value
CC[C@H](C)[C@H](NC(=O)CNC(=O)[C@H](CCCCN)NC(=O)[C@H](CCCNC(=N)N)NC(=O)[C@@H](NC(=O)[C@@H](NC(=O)[C@H](CCCNC(=N)N)NC(=O)[C@H](CCCNC(=N)N)NC(=O)[C@H](CC(C)C)NC(=O)[C@H](CC(N)=O)NC(=O)[C@@H](N)CCCCN)[C@@H](C)CC)[C@@H](C)CC)C(=O)N[C@@H](Cc1c[nH]cn1)C(=O)N[C@H](C(=O)N[C@H](C(=O)N[C@@H](CCCCN)C(=O)N[C@@H](CCCCN)C(=O)N[C@@H](Cc1ccc(O)cc1)C(=O)NCC(=O)O)[C@@H](C)CC)[C@@H](C)CC [Novispirin G10] (H-KNLRRIIRKGIHIIKKYG-OH; N-terminus assumed),"ratio, gene tra8_1",,−4.3
same,"ratio, gene trpD",,−3.4
same,"ratio, gene tsx",,−3.3
same,"ratio, gene ugpA",,3.3
same,"ratio, gene uvrY",,3.3
same,"ratio, gene uxuB",,3.5
same,"ratio, gene vacJ",,3.0
same,"ratio, gene wcaD",,−2.7
same,"ratio, gene wcaJ",,−2.8
same,"ratio, gene wza",,3.3
same,"ratio, gene xasA",,24.9
same,"ratio, gene yaaI",,2.9
same,"ratio, gene yabI",,−2.6
same,"ratio, gene yafC",,−5.1
same,"ratio, gene yagT",,3.3
same,"ratio, gene yaiH",,6.1
same,"ratio, gene yaiP",,−3.9
same,"ratio, gene ybaP",,8.4
same,"ratio, gene ybaS",,8.8
same,"ratio, gene ybaY",,9.9
same,"ratio, gene ybbN",,−2.6
same,"ratio, gene ybbY",,4.4
same,"ratio, gene ybdS",,4.2
same,"ratio, gene ybeK",,−3.0
same,"ratio, gene ybeL",,3.6
same,"ratio, gene ybfA",,3.5
same,"ratio, gene ybgA",,4.2
same,"ratio, gene ybhL",,9.3
same,"ratio, gene ybhP",,−5.1
same,"ratio, gene ybhS",,−2.6
same,"ratio, gene ybiU",,−3.7
same,"ratio, gene ybiX",,−2.7
same,"ratio, gene ybjC",,−2.7
same,"ratio, gene ybjG",,5.8
same,"ratio, gene ybjN",,−2.7
same,"ratio, gene ybjX",,5.3
same,"ratio, gene ycaC",,7.4
same,"ratio, gene ycbQ",,−5.0
same,"ratio, gene yccD",,4.9
same,"ratio, gene yccM",,2.8
same,"ratio, gene ycdQ",,−2.8
same,"ratio, gene ycfA",,−3.4
same,"ratio, gene ycfH",,5.3
same,"ratio, gene ycfR",,2.8
same,"ratio, gene ycgB",,4.5
same,"ratio, gene ycgY",,3.0
same,"ratio, gene yciE",,5.4
same,"ratio, gene yciI",,5.1
same,"ratio, gene yciR",,6.5
same,"ratio, gene ycjF",,−2.7
same,"ratio, gene yddM",,3.0
same,"ratio, gene ydhO",,−2.8
same,"ratio, gene yeaG",,12.0
same,"ratio, gene yeaH",,2.8
same,"ratio, gene yeaP",,−2.6
same,"ratio, gene yeaQ",,6.9
same,"ratio, gene yedU",,3.7
same,"ratio, gene yehT",,−4.0
same,"ratio, gene yehX",,5.6
same,"ratio, gene yehY",,4.2
same,"ratio, gene yehZ",,7.1
same,"ratio, gene yeiQ",,−2.7
same,"ratio, gene yfbM",,4.9
same,"ratio, gene yfcI",,3.1
same,"ratio, gene yfiA",,−3.6
same,"ratio, gene yfiD",,−2.6
same,"ratio, gene ygaG",,3.8
same,"ratio, gene ygaH",,−3.3
same,"ratio, gene ygaM",,7.9
same,"ratio, gene ygaU",,5.1
same,"ratio, gene ygcO",,−5.7
same,"ratio, gene ygeF",,5.2
same,"ratio, gene ygfQ",,3.7
same,"ratio, gene yggH",,5.7
same,"ratio, gene ygiA",,4.2
same,"ratio, gene ygiW",,5.2
same,"ratio, gene yhaF",,−2.6
same,"ratio, gene yhcO",,4.4
same,"ratio, gene yhfG",,3.4
same,"ratio, gene yhgE",,−2.9
same,"ratio, gene yhhZ",,−2.6
same,"ratio, gene yhiE",,3.9
same,"ratio, gene yhiF",,2.9
same,"ratio, gene yhiW",,3.0
same,"ratio, gene yhjX",,−9.6
same,"ratio, gene yi81_1",,−3.2
same,"ratio, gene yiaG",,10.1
same,"ratio, gene yiaL",,−2.9
same,"ratio, gene yibI",,−3.1
same,"ratio, gene yidZ",,−3.3
same,"ratio, gene yieJ",,−2.9
same,"ratio, gene yieN",,−3.8
same,"ratio, gene yigW_1",,3.8
same,"ratio, gene yihL",,−8.0
same,"ratio, gene yihM",,−3.3
same,"ratio, gene yihQ",,3.9
same,"ratio, gene yijC",,4.1
same,"ratio, gene yjbF",,−3.5
same,"ratio, gene yjbO",,8.3
same,"ratio, gene yjcF",,3.1
same,"ratio, gene yjdB",,4.5
same,"ratio, gene yjiG",,3.1
same,"ratio, gene yjiZ",,3.8
same,"ratio, gene ykgE",,−4.2
same,"ratio, gene ykgF",,−3.1
same,"ratio, gene ylbB",,−3.1
same,"ratio, gene ylcC",,−3.6
same,"ratio, gene ylcD",,8.8
same,"ratio, gene ymdD",,−4.3
same,"ratio, gene ymfJ",,−3.4
same,"ratio, gene ymfM",,5.1
same,"ratio, gene ymgE",,3.9
same,"ratio, gene yncB",,3.4
same,"ratio, gene ynfL",,5.7
same,"ratio, gene yoaE",,2.8
same,"ratio, gene yodB",,6.2
same,"ratio, gene yohC",,12.0
same,"ratio, gene yohF",,2.8
same,"ratio, gene yohM",,7.7
same,"ratio, gene yqcD",,−3.3
same,"ratio, gene yqgA",,−2.9
same,"ratio, gene yqhD",,−2.6
same,"ratio, gene yqhE",,4.0
same,"ratio, gene yqjC",,3.2
same,"ratio, gene yqjD",,5.8
same,"ratio, gene yqjE",,3.9
same,"ratio, gene yqjF",,3.6
same,"ratio, gene yqjG",,2.9
same,"ratio, gene yrbF",,3.1
same,"ratio, gene yrfG",,−2.6
same,"ratio, gene ysgA",,2.8
same,"Fold, gene ais",AMP resistance,14.1
same,"Fold, gene b2253",AMP resistance,8.4
same,"Fold, gene b2254",AMP resistance,5.5
same,"Fold, gene b2256",AMP resistance,4.0
same,"Fold, gene crcA",AMP resistance,11.7
same,"Fold, gene Asr",Acid shock,19.2
same,"Fold, gene Slp",Acid shock,3.6
same,"Fold, gene dksA",Acid shock,4.1
same,"Fold, gene dps",Acid shock,4.4
same,"Fold, gene gabP",Acid shock,8.2
same,"Fold, gene gabT",Acid shock,6.5
same,"Fold, gene gadC",Acid shock,24.9
same,"Fold, gene gadE",Acid shock,3.9
same,"Fold, gene gadW",Acid shock,3.0
same,"Fold, gene hdeA",Acid shock,7.7
same,"Fold, gene hdeB",Acid shock,7.9
same,"Fold, gene hdeD",Acid shock,4.3
same,"Fold, gene nmpC",Acid shock,−6.6
same,"Fold, gene ybaS",Acid shock,8.8
same,"Fold, gene ycaC",Acid shock,7.4
same,"Fold, gene ydiZ",Acid shock,9.1
same,"Fold, gene yeaQ",Acid shock,6.9
same,"Fold, gene yebV",Acid shock,6.9
same,"Fold, gene yiaG",Acid shock,10.1
same,"Fold, gene amyA",Carbon metabolism,5.8
same,"Fold, gene b2097",Carbon metabolism,8.1
same,"Fold, gene glk",Carbon metabolism,3.4
same,"Fold, gene sfcA",Carbon metabolism,5.8
same,"Fold, gene sfsA",Carbon metabolism,6.4
same,"Fold, gene talA",Carbon metabolism,11.7
same,"Fold, gene tktB",Carbon metabolism,26.5
same,"Fold, gene clpB",Heat shock,−3.6
same,"Fold, gene dnaJ",Heat shock,−3.0
same,"Fold, gene dnaK",Heat shock,−2.8
same,"Fold, gene grpE",Heat shock,−3.0
same,"Fold, gene hslU",Heat shock,−3.2
same,"Fold, gene hslV",Heat shock,−3.0
same,"Fold, gene ibpB",Heat shock,−6.5
same,"Fold, gene lon",Heat shock,−2.9
same,"Fold, gene mopA",Heat shock,−3.6
same,"Fold, gene mopB",Heat shock,−9.1
same,"Fold, gene hemL",Mg^2+-stimulon,8.3
same,"Fold, gene mgrB",Mg^2+-stimulon,4.6
same,"Fold, gene mgtA",Mg^2+-stimulon,7.5
same,"Fold, gene nagA",Mg^2+-stimulon,3.7
same,"Fold, gene phoP",Mg^2+-stimulon,2.8
same,"Fold, gene phoQ",Mg^2+-stimulon,3.7
same,"Fold, gene rstB",Mg^2+-stimulon,3.6
same,"Fold, gene nagB",Mg^2+-stlmulon(?),8.8
same,"Fold, gene narU",Nitrogen assimilation,15.1
same,"Fold, gene narX",Nitrogen assimilation,−4.0
same,"Fold, gene narY",Nitrogen assimilation,11.0
same,"Fold, gene narZ",Nitrogen assimilation,4.9
same,"Fold, gene nirB",Nitrogen assimilation,−2.9
same,"Fold, gene nirC",Nitrogen assimilation,−3.0
same,"Fold, gene nirD",Nitrogen assimilation,−5.7
same,"Fold, gene nrfA",Nitrogen assimilation,−12.7
same,"Fold, gene bolA",Osmotic shock,13
same,"Fold, gene dacC",Osmotic shock,3.6
same,"Fold, gene katE",Osmotic shock,9.9
same,"Fold, gene osmC",Osmotic shock,7.2
same,"Fold, gene osmE",Osmotic shock,11.7
same,"Fold, gene osmY",Osmotic shock,6.4
same,"Fold, gene otsA",Osmotic shock,5.2
same,"Fold, gene otsB",Osmotic shock,5.6
same,"Fold, gene proW",Osmotic shock,7.9
same,"Fold, gene yehX",Osmotic shock,5.6
same,"Fold, gene yehY",Osmotic shock,4.2
same,"Fold, gene yehZ",Osmotic shock,7.1
same,"Fold, gene pspA",Phage shock,6.7
same,"Fold, gene pspB",Phage shock,6.9
same,"Fold, gene pspC",Phage shock,15.8
same,"Fold, gene pspD",Phage shock,13.5
same,"Fold, gene pspE",Phage shock,9.4
same,"Fold, gene sfmC",Protein folding,11.4
same,"Fold, gene aer",Redox,14.3
same,"Fold, gene appB",Redox,47.2
same,"Fold, gene appC",Redox,3.5
same,"Fold, gene ndh",Redox,3.1
same,number of genes down-regulated,[1],144 genes
same,number of genes up-regulated,[1],200 genes
